Assay [1] can be described thus: Antiinflammatory in rat peritoneal mast cell assessed as inhibition of histamine release. Type of assay: functional, cell-based.
Another assay deals with PBMC. Put plainly: Inhibition of PMA or fMLP-induced human PBMC activation assessed as superoxide production at 30 uM. Further details: scale not given: the % may be the effect or the level left. Type of assay: functional.
Assay [2] can be described thus: Antiinflammatory in rat peritoneal mast cell assessed as inhibition of histamine release at 30 uM. Type of assay: functional. Also noted: scale not given: the % may be the effect or the level left.

As a reminder, the IC50 is the concentration at which inhibition is half-maximal.

Take `CC(C)[C@@H]1CC(O)O[C@H](C(C)[C@H]2CC(=O)[C@H]3[C@@H]4[C@@H](O)[C@H](O)[C@H]5[C@@H](O)[C@H](O)CC[C@]5(C)[C@H]4CC[C@]23C)C1` (stereo partly drawn): the IC50 in assay [1] turned out to be 800 nM.
Turning to `CC(C)C(CCC(C)[C@H]1CC(=O)[C@H]2[C@@H]3[C@@H](O)[C@H](O)[C@H]4C[C@@H](O)CC[C@]4(C)[C@H]3CC[C@]12C)C(C)O` (stereo partly drawn), the Activity in the assay with PBMC stood at 76%; in assay [2], 72%.

The values are drawn from ChEMBL document CHEMBL1148128, “Clathriol, a novel polyoxygenated 14beta steroid isolated from the New Zealand marine sponge Clathria lissosclera” (J Nat Prod, 2002).
